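Each compound was tested at five concentrations against cells in 96-well plates for 48 hours. The concentration for 50% growth inhibition is given as GI50.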 Calls of active or inactive are those of the source. Cut-off read from the data, not from the text of the source: active = GI50 up to about 1.1 µM and inactive = higher. Square brackets hold non-standard residues; d marks the D form. Peptide text beside a SMILES is read from it. * marks the point of attachment. Bn2Val = CC(C)[C@@H](C(=O)*)N(Cc1ccccc1)Cc1ccccc1; NH(3,4-diMeO-benzyl) = COc1ccc(CN*)cc1OC; NMeV = CN[C@H](C(=O)O)C(C)C; dNMeA = CN[C@H](C)C(=O)O
Columns and labels:
Assay in all cases: inhibition of tumour cell growth, NCI panel, 48 h
786-0 = tested on: 786-0
BT-549 = tested on: BT-549
EKVX = tested on: EKVX
HCT-116 = tested on: HCT-116
HOP-92 = tested on: HOP-92
Hs-578T = tested on: Hs-578T
K562 = tested on: K562
MCF7 = tested on: MCF7
MDA-MB-231 = tested on: MDA-MB-231
NCI-H23 = tested on: NCI-H23
OVCAR-5 = tested on: OVCAR-5
PC-3 = tested on: PC-3
SF-268 = tested on: SF-268
SF-295 = tested on: SF-295
SK-MEL-28 = tested on: SK-MEL-28
SK-MEL-5 = tested on: SK-MEL-5
SN12C = tested on: SN12C
SNB-19 = tested on: SNB-19
U-251 = tested on: U-251

Compound	GI50 (786-0)	GI50 (BT-549)	GI50 (EKVX)	GI50 (HCT-116)	GI50 (HOP-92)	GI50 (Hs-578T)	GI50 (K562)	GI50 (MCF7)	GI50 (MDA-MB-231)	GI50 (NCI-H23)	GI50 (OVCAR-5)	GI50 (PC-3)	GI50 (SF-268)	GI50 (SF-295)	GI50 (SK-MEL-28)	GI50 (SK-MEL-5)	GI50 (SN12C)	GI50 (SNB-19)	GI50 (U-251)
CN(C)C=O.O=C(Nc1nnn[nH]1)c1nc(O)cc(-c2ccccc2)n1	> 100 µM (inactive)	> 100 µM (inactive)	> 100 µM (inactive)	> 100 µM (inactive)	> 100 µM (inactive)	> 100 µM (inactive)	> 100 µM (inactive)	> 100 µM (inactive)	> 100 µM (inactive)	> 100 µM (inactive)	> 100 µM (inactive)	> 100 µM (inactive)	> 100 µM (inactive)	> 100 µM (inactive)	> 100 µM (inactive)	> 100 µM (inactive)	> 100 µM (inactive)	> 100 µM (inactive)	> 100 µM (inactive)
O=[N+]([O-])c1ccc(Oc2c(Cl)cc(S(=O)(=O)N/C(=N\O)Nc3ccc(Cl)cc3)cc2Cl)c(Cl)c1	14.7 µM (inactive)	14.8 µM (inactive)	14.8 µM (inactive)	13.4 µM (inactive)	12.8 µM (inactive)	13.7 µM (inactive)	15.8 µM (inactive)	17.2 µM (inactive)	17 µM (inactive)	17.7 µM (inactive)	19.5 µM (inactive)	13.3 µM (inactive)	13.6 µM (inactive)	17.3 µM (inactive)	21.6 µM (inactive)	16.9 µM (inactive)	14.3 µM (inactive)	16.9 µM (inactive)	15.4 µM (inactive)
CN(C)CC(O)CNC(=O)Nc1ccccc1 (stereo unspecified)	> 100 µM (inactive)	> 100 µM (inactive)	> 100 µM (inactive)	> 100 µM (inactive)	> 100 µM (inactive)	> 100 µM (inactive)	> 100 µM (inactive)	> 100 µM (inactive)	> 100 µM (inactive)	> 100 µM (inactive)	> 100 µM (inactive)	> 100 µM (inactive)	> 100 µM (inactive)	> 100 µM (inactive)	> 100 µM (inactive)	> 100 µM (inactive)	> 100 µM (inactive)	> 100 µM (inactive)	> 100 µM (inactive)
COc1ccc(CNC(=O)[C@@H](C)N(C)C(=O)[C@@H]2CCCN2C(=O)[C@H](C(C)C)N(C)C(=O)[C@@H](NC(=O)[C@H](C(C)C)N(Cc2ccccc2)Cc2ccccc2)C(C)C)cc1OC (Bn2Val-V[NMeV]P[dNMeA]-{NH(3,4-diMeO-benzyl)})	8.97 µM (inactive)	7.69 µM (inactive)	6.24 µM (inactive)	6.76 µM (inactive)	7.4 µM (inactive)	1.36 µM (inactive)	10.8 µM (inactive)	4.33 µM (inactive)	8.15 µM (inactive)	10.5 µM (inactive)	8.2 µM (inactive)	3.61 µM (inactive)	6.41 µM (inactive)	6.28 µM (inactive)	8.34 µM (inactive)	5.87 µM (inactive)	8.13 µM (inactive)	7.48 µM (inactive)	7.6 µM (inactive)
COc1cc(/C=C2\N=C(c3ccccc3)N(c3nc4ccc(Sc5ccccc5)cc4[nH]3)C2=O)cc(OC)c1OC	20.4 µM (inactive)	20.8 µM (inactive)	38.7 µM (inactive)	20.7 µM (inactive)	58.6 µM (inactive)	30.8 µM (inactive)	13.2 µM (inactive)	17.8 µM (inactive)	20.6 µM (inactive)	27 µM (inactive)	33.7 µM (inactive)	26.9 µM (inactive)	26.2 µM (inactive)	23.6 µM (inactive)	24 µM (inactive)	13.2 µM (inactive)	27.9 µM (inactive)	33.6 µM (inactive)	18.3 µM (inactive)
CC12CCC(C1)C(C)(C)C2OC(=O)c1ccccc1C(=O)O (stereo unspecified)	> 100 µM (inactive)	> 100 µM (inactive)	> 100 µM (inactive)	> 100 µM (inactive)	> 100 µM (inactive)	8.97 µM (inactive)	> 100 µM (inactive)	> 100 µM (inactive)	> 100 µM (inactive)	> 100 µM (inactive)	> 100 µM (inactive)	> 100 µM (inactive)	> 100 µM (inactive)	> 100 µM (inactive)	> 100 µM (inactive)	> 100 µM (inactive)	> 100 µM (inactive)	> 100 µM (inactive)	> 100 µM (inactive)
Cc1nn2c(=O)c([N+](=O)[O-])c(/C=C/c3ccccc3)nc2s1	4.52 µM (inactive)	2.37 µM (inactive)	4.61 µM (inactive)	3.42 µM (inactive)	8.28 µM (inactive)	7.33 µM (inactive)	2.56 µM (inactive)	1.61 µM (inactive)	11.5 µM (inactive)	11 µM (inactive)	4.68 µM (inactive)	4.13 µM (inactive)	3.92 µM (inactive)	17.3 µM (inactive)	5.33 µM (inactive)	3.69 µM (inactive)	5.27 µM (inactive)	4.06 µM (inactive)	2.42 µM (inactive)
Nc1nc(Cl)nc(NCc2ccccc2)n1	> 100 µM (inactive)	> 100 µM (inactive)	> 100 µM (inactive)	> 100 µM (inactive)	> 100 µM (inactive)	> 100 µM (inactive)	> 100 µM (inactive)	> 100 µM (inactive)	> 100 µM (inactive)	> 100 µM (inactive)	> 100 µM (inactive)	> 100 µM (inactive)	> 100 µM (inactive)	> 100 µM (inactive)	> 100 µM (inactive)	> 100 µM (inactive)	> 100 µM (inactive)	> 100 µM (inactive)	> 100 µM (inactive)
CC[C@@H]1/C=C/C=C/C[C@H](C)[C@@H](O)[C@](C)(O)C(=O)[C@H](C)[C@@H](O)[C@H](C)C(=O)[C@H](C)[C@@H](O)[C@H](C)/C=C/C(=O)O[C@H]2[C@@H](C)[C@@H](CC1)O[C@@]1(CC[C@@H](C)[C@@H](CC(C)O)O1)[C@@H]2C (stereo partly specified)	1.85 µM (inactive)	1.52 µM (inactive)	< 0.01 µM (active)	1.1 µM (active)	1.59 µM (inactive)	2.88 µM (inactive)	< 0.01 µM (active)	< 0.01 µM (active)	1.83 µM (inactive)	< 0.01 µM (active)	1.68 µM (inactive)	< 0.01 µM (active)	2.7 µM (inactive)	< 0.01 µM (active)	6.5 µM (inactive)	< 0.01 µM (active)	1.72 µM (inactive)	< 0.01 µM (active)	< 0.01 µM (active)
CC1(C)COC2=C(C1)C(=O)c1ccccc1C2=O	1.84 µM (inactive)	1.85 µM (inactive)	1.9 µM (inactive)	0.449 µM (active)	2.3 µM (inactive)	2.88 µM (inactive)	0.102 µM (active)	1.21 µM (inactive)	2.04 µM (inactive)	1.54 µM (inactive)	1.69 µM (inactive)	1.55 µM (inactive)	1.65 µM (inactive)	1.63 µM (inactive)	1.64 µM (inactive)	0.71 µM (active)	1.36 µM (inactive)	1.97 µM (inactive)	1.43 µM (inactive)
COC(=O)C(CC(C)C)NC(=O)C(NC(=O)c1ccc(-c2ccc(Cl)cc2Cl)o1)C(C)C (stereo unspecified)	16.1 µM (inactive)	30 µM (inactive)	13.7 µM (inactive)	12.3 µM (inactive)	14.2 µM (inactive)	27.5 µM (inactive)	16 µM (inactive)	16.5 µM (inactive)	13.8 µM (inactive)	22.5 µM (inactive)	22.2 µM (inactive)	14.1 µM (inactive)	22 µM (inactive)	16.2 µM (inactive)	33.4 µM (inactive)	20.3 µM (inactive)	18 µM (inactive)	30.5 µM (inactive)	17.9 µM (inactive)
COc1ccc(CCN2COc3ccc4ccc(=O)oc4c3C2)cc1OC	> 100 µM (inactive)	> 100 µM (inactive)	> 100 µM (inactive)	66.5 µM (inactive)	21 µM (inactive)	> 100 µM (inactive)	50.4 µM (inactive)	89.5 µM (inactive)	> 100 µM (inactive)	> 100 µM (inactive)	> 100 µM (inactive)	> 100 µM (inactive)	60.4 µM (inactive)	> 100 µM (inactive)	> 100 µM (inactive)	58.1 µM (inactive)	> 100 µM (inactive)	> 100 µM (inactive)	88.9 µM (inactive)
COc1cc(C2c3cc4c(cc3OC3(OC)COC(=O)C23)OCO4)cc(OC)c1OC(C)=O (stereo unspecified)	1.21 µM (inactive)	5 µM (inactive)	> 35.8 µM (inactive)	0.785 µM (active)	51.2 µM (inactive)	0.54 µM (active)	1.04 µM (active)	1.07 µM (active)	2.9 µM (inactive)	3.27 µM (inactive)	4.6 µM (inactive)	0.429 µM (active)	6.75 µM (inactive)	0.321 µM (active)	2.27 µM (inactive)	0.726 µM (active)	3.93 µM (inactive)	5.94 µM (inactive)	2.13 µM (inactive)
CC1=C/C(=C(/c2ccc(O)c(C)c2)c2ccccc2C(=O)O)C=CC1=O	19 µM (inactive)	21.1 µM (inactive)	19.4 µM (inactive)	18.2 µM (inactive)	20.3 µM (inactive)	25.4 µM (inactive)	21.3 µM (inactive)	19.7 µM (inactive)	19.9 µM (inactive)	20.2 µM (inactive)	21.2 µM (inactive)	19.6 µM (inactive)	25.2 µM (inactive)	21.8 µM (inactive)	20.4 µM (inactive)	20.4 µM (inactive)	19.6 µM (inactive)	17.7 µM (inactive)	18.2 µM (inactive)

From ChEMBL document CHEMBL1201862, “PubChem BioAssay data set” (2004)
